Measurements: US7087623B2, “Thiazole and other heterocyclic ligands for mammalian dopamine, muscarinic and serotonin receptors and transporters, and methods of use thereof” (Sepracor Inc., priority 2001, dated 2006)
Where two headings read alike, the source gives them in different places.

Legend:
[1] = molecular target: T1, human dopamine transporter (Homo sapiens, UniProt Q01959); assay: Binding to human dopamine transporter ([125I]RTI-55)
T1 construct: expressed in transfected cells; host or cells: CHO-K1
T1 sequence (Q01959 whole entry): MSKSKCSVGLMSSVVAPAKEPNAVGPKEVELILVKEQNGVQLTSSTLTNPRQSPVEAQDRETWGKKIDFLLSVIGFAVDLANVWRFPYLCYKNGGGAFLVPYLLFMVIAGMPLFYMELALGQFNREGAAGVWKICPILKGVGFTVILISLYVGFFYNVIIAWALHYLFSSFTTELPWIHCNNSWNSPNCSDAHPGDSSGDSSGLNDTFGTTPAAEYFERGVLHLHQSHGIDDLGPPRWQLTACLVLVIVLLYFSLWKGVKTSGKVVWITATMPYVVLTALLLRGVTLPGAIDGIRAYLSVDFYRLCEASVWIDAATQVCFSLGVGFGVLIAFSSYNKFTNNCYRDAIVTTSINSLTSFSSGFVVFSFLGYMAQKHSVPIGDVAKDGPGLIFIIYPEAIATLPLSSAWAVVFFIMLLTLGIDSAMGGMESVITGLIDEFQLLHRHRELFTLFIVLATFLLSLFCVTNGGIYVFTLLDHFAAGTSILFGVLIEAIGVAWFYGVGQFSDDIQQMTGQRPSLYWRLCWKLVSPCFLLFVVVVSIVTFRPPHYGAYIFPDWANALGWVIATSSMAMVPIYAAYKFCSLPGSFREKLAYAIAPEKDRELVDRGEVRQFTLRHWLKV
Procedure: CHO-K1 cell membranes stably transfected with a plasmid encoding the human dopamine transporter were prepared in modified Tris-HCl pH 7.4 buffer using standard techniques. […] Non-specific binding was estimated in the presence of 10 μM nomifensine. […] Trends. […]

[2] = molecular target: T2, human serotonin 5-HT6 receptor (Homo sapiens, UniProt P50406); assay: Radioligand binding assay, human 5-HT6 receptors ([3H]LSD)
T2 construct: expressed in transfected cells; host or cells: HeLa/E6-7
T2 sequence (P50406 whole entry): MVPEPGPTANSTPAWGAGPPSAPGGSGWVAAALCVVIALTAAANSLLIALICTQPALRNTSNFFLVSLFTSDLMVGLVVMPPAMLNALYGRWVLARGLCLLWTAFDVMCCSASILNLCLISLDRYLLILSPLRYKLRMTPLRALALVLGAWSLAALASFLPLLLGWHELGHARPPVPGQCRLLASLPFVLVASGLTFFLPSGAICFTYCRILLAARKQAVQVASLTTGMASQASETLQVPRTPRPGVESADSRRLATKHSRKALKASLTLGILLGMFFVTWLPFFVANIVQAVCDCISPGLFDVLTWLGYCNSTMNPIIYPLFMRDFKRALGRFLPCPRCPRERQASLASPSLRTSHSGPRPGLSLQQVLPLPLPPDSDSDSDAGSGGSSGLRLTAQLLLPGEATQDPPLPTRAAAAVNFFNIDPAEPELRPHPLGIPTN
Summary of the method: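 Membranes from HeLa/E6–7 cells stably expressing human 5-HT6, in modified Tris-HCl pH 7.4, incubated (30 μg) with 1.5 nM [3H]LSD for 120 min at 37° C. Non-specific binding defined with 5 μM 5-HT; bound ligand measured by filtration and counting.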

[3] = molecular target: T3, human muscarinic M3 receptor (Homo sapiens, UniProt P20309); assay: Binding to human muscarinic M3 receptors ([3H]N-methylscopolamine)
T3 construct: expressed in transfected cells; host or cells: BSR-M3H
T3 sequence (P20309 whole entry): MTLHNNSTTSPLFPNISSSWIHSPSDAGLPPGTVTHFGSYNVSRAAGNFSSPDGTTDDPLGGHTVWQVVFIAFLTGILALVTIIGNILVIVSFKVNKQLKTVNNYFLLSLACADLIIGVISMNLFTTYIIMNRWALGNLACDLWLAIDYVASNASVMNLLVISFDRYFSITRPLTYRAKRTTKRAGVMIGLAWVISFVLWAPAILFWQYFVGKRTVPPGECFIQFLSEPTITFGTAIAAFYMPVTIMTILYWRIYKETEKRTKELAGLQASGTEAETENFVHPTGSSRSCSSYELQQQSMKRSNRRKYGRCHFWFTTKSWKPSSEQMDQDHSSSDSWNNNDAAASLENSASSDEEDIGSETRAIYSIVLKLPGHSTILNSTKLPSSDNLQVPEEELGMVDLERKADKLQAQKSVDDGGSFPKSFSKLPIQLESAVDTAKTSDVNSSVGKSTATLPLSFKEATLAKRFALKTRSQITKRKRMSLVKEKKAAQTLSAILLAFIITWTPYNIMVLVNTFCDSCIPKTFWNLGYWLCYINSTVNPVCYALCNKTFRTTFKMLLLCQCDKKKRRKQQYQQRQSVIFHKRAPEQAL
Procedure: (§1) This assay measures binding of [^3H]N-methylscopolamine to human muscarinic M3 receptors. BSR-M3H cells transfected with a plasmid encoding the human muscarinic M3 receptor were used to prepare membranes in modified Tris-HCl pH 7.4 buffer using standard techniques. A 5 μg aliquot of membrane was incubated with 0.29 nM [^3H]N-methylscopolamine for 60 minutes at 25° C. Non-specific binding was estimated in the presence of 1 μM atropine. Membranes were filtered and washed 3 times and the filters were counted to determine [^3H]N-methylscopolamine specifically bound. See Buckley, N. J., Bonner, T. I., Buckley, C. M. and Brann, M. R. Antagonist binding properties of five cloned muscarinic receptors expressed in CHO-K1 cells. Mol. Pharmacol. 35: 469–476, 1989.
(§2) The human 5-HT2a and 5-HT2b screens were conducted according to Bonhaus, D. W. et al. Br. J. Pharmacol. 1995, 115, 622. The human […], W. A. et al. J. Neurochem. 1997, 69, 1449. The human 5-HT6 screen was conducted according to Monsama, F. J. et al. Mol. Pharmacol. 1993, 43, 320. The assay to human D3 receptors was conducted according to Sokoloff, P. et al. Nature 1990, 347;146. The human dopamine transporter assay was conducted according to Gu, H. et. al. J. Biol. Chem. 1994, 269 (10);7124; and Giros, B. et al. Trends. Pharmacol. Sci. 1993, 14: 43. The human muscarinic M1–M4 screens were conducted according to Buckley N. J. et al. Mol. Pharmacol. 1989, 35:469.
(§3) The human dopamine transporter assay was conducted according to Gu, H. et. al. J. Biol. Chem. 1994, 269 (10);7124 and Giros, B. et al. Trends. Pharmacol. Sci. 1993, 14: 43. The human muscarinic M1–M4 screens were conducted according to Buckley N. J. et al. Mol. Pharmacol. 199, 35:469

[4] = molecular target: T4, human serotonin 5-HT2B receptor (Homo sapiens, UniProt P41595); assay: Radioligand binding assay, human 5-HT2B receptors ([3H]LSD)
T4 construct: expressed in transfected cells; host or cells: CHO-K1
T4 sequence (P41595 whole entry): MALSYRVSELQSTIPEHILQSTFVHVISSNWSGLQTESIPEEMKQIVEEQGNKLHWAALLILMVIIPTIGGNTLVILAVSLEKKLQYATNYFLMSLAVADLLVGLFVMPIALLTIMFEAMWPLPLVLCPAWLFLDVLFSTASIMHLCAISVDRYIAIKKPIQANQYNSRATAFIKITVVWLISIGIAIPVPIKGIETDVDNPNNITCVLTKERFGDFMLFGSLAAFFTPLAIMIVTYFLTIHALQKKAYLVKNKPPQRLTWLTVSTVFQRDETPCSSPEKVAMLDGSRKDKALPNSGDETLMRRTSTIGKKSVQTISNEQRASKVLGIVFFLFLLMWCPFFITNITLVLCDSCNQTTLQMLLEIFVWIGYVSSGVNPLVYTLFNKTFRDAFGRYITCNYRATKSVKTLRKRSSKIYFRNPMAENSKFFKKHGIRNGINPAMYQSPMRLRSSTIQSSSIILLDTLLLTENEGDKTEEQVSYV
Summary of the method: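 Membranes from CHO-K1 cells stably expressing human 5-HT2B, in modified Tris-HCl pH 7.4, bound with [3H]LSD. Non-specific binding defined with 10 μM serotonin; specific binding counted after filtration and three washes.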

[5] = molecular target: T5, human muscarinic M4 receptor (Homo sapiens, UniProt P08173); assay: Binding to human muscarinic M4 receptors ([3H]N-methylscopolamine)
T5 construct: expressed in transfected cells; host or cells: BSR-M4H
T5 sequence (P08173 1-479): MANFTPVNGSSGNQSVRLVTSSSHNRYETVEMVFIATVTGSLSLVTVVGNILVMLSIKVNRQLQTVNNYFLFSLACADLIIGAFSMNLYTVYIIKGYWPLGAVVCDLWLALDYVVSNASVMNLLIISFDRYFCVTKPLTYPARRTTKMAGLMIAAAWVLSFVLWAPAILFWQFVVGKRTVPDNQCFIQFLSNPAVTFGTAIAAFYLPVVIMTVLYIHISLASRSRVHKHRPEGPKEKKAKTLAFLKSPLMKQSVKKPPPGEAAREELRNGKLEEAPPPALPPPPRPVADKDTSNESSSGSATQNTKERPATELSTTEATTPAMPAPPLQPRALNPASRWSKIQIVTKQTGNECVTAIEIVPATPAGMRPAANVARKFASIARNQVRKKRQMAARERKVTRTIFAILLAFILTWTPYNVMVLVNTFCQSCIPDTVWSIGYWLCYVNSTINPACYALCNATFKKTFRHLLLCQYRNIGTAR
Procedure: as §1, with “muscarinic M4” for “muscarinic M3”, “receptors. BSR-M4H” for “receptors. BSR-M3H”, “filters are” for “filters were”
as §2, §3

[6] = human, Example 101 table, read-out: IC50 (nM) DAT
[7] = human 5-HT6, Example 16 table, read-out: IC50 (nM) 5-HT6
[8] = human, Example 101 table, read-out: IC50 (nM) M3
[9] = human 5-HT2b, Example 16 table, read-out: IC50 (nM) 5-HT2b
[10] = human, Example 101 table, read-out: IC50 (nM) M4
[11] = human, Example 100 table, read-out: IC50 (nM) DAT
[12] = human, Example 100 table, read-out: IC50 (nM) 5-HT6
[13] = human, Example 100 table, read-out: IC50 (nM) M3
[14] = human, Example 100 table, read-out: IC50 (nM) M4
[15] = human, Example 100 table, read-out: IC50 (nM) 5-HT2B

Row | SMILES | IC50 [1, 6] [nM] | IC50 [2, 7] [nM] | IC50 [3, 8] [nM] | IC50 [4, 9] [nM] | IC50 [5, 10] [nM] | IC50 [1, 11] [nM] | IC50 [2, 12] [nM] | IC50 [3, 13] [nM] | IC50 [5, 14] [nM] | also measured
1 | CN1CCN(c2nc(C3(c4csc5ccc(Cl)cc45)CCOCC3)cs2)CC1 [Compound 36] | > 1000 | < 100 | > 1000 | < 1000 | > 1000 | – | – | – | – | –
2 | CN1CCN(c2nc(C3(c4ccccc4F)CCCC3)cs2)CC1 [Compound 93] | > 1000 | < 100 | < 100 | < 1000 | < 500 | – | – | – | – | –
3 | Clc1ccc(C2(c3csc(N4CCNCC4)n3)CCOCC2)cc1 [Compound 37] | > 1000 | < 100 | < 500 | > 1000 | < 1000 | – | – | – | – | –
4 | CN1CCN(c2nc(C3(c4ccccc4F)CCCCC3)cs2)CC1 [Compound 83] | > 1000 | < 100 | < 500 | < 100 | < 1000 | – | – | – | – | –
5 | CN1CCN(c2nc(C3(c4ccccc4F)CCOCC3)cs2)CC1 [Compound 112] | – | – | – | – | – | > 1000 | < 100 | > 1000 | > 1000 | –
6 | CN1CCN(c2nc(C3(c4cccc(Cl)c4)CCOCC3)cs2)CC1 [Compound 63] | > 1000 | < 100 | > 1000 | < 1000 | > 1000 | – | – | – | – | –
7 | CN1CCCC1CCNc1nc(C2(c3ccccc3F)CCCCC2)cs1 (single isomer, unassigned) [Compound 130, {4-[1-(2-fluorophenyl)-cyclohexyl]-thiazol-2-yl}-[2-(1-methyl-pyrrolidin-2-yl)-ethyl]-amine] | – | – | – | – | – | > 1000 | < 100 | < 1000 | > 1000 | IC50 [4, 15]: < 100 nM
8 | CN1CCCC1CCNc1nc(C2(c3ccccc3F)CCCCC2)cs1 (racemic) [Compound 128, {4-[1-(2-fluorophenyl)-cyclohexyl]-thiazol-2-yl}-[2-(1-methyl-pyrrolidin-2-yl)-ethyl]-amine] | – | – | – | – | – | > 1000 | < 100 | < 1000 | < 1000 | IC50 [4, 15]: < 1000 nM
9 | CN1CCN(c2nc(C3(c4ccccc4)CCOCC3)cs2)CC1 [Compound 59] | – | – | – | – | – | – | – | – | – | IC50 [1]: > 1000 nM; IC50 ([2]; IC50 (nM) 5-HT6, human 5-HT6, Example 16 table): < 100 nM; IC50 [3]: > 1000 nM; IC50 [4]: > 1000 nM; IC50 [5]: > 1000 nM
